Reference: ChEMBL document CHEMBL1909046, “DrugMatrix in vitro pharmacology data”

Assays:
[1] = target: T1, Alpha-1A adrenergic receptor (Rattus norvegicus, UniProt P43140); assay: DRUGMATRIX: Alpha-1A adrenergic receptor radioligand binding (ligand: prazosin); format: cell membranes, Wistar, Submaxillary gland, Membrane; settings: Not Active = under 50% inhibition at 10 µM
T1 sequence (P43140 whole entry): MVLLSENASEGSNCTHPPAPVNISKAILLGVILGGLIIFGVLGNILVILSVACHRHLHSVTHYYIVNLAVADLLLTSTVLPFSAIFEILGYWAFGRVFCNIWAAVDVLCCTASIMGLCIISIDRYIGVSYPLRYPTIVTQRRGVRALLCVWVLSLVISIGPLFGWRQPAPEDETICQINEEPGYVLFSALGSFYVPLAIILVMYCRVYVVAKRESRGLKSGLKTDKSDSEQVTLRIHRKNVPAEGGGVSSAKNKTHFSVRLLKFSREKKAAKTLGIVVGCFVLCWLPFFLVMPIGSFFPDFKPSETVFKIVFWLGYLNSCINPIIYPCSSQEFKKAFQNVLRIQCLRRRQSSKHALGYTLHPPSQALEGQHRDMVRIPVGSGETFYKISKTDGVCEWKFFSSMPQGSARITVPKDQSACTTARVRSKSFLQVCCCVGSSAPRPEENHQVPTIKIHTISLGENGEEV

[2] = target: T2, Alpha-1B adrenergic receptor (Rattus norvegicus, UniProt P15823); assay: DRUGMATRIX: Alpha-1B adrenergic receptor radioligand binding (ligand: prazosin); format: cell membranes, Wistar, Liver, Membrane; settings: Not Active = under 50% inhibition at 10 µM
T2 sequence (P15823 whole entry): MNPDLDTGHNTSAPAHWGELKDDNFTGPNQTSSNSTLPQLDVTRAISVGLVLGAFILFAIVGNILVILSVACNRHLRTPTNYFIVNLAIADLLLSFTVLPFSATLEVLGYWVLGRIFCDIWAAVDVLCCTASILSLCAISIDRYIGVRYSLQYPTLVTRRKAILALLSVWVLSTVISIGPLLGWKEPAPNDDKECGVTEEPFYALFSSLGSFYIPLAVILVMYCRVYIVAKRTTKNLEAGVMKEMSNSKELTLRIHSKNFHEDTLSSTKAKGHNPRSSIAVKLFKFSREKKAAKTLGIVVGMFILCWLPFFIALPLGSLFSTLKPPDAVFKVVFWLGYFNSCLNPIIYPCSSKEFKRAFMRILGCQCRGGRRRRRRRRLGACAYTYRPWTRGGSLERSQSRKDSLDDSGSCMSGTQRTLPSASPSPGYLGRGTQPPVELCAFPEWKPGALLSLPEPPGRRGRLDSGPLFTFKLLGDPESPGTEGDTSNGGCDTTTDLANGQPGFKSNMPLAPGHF

[3] = DRUGMATRIX: Tumor Necrosis Factor (TNF), Non-Selective radioligand binding (ligand: [125I] TNF-alpha); format: cell membranes, Membrane; settings: u-937; Not Active = under 50% inhibition at 10 µM
[4] = target: Vascular endothelial growth factor receptor 1 (Homo sapiens, UniProt P17948); assay: biochemical; format: cell-based, HUVEC; settings: huvec; also: in other assays of this panel Not Active means under 50% inhibition at 10 µM
Vascular endothelial growth factor receptor 1, sequence (P17948 whole entry): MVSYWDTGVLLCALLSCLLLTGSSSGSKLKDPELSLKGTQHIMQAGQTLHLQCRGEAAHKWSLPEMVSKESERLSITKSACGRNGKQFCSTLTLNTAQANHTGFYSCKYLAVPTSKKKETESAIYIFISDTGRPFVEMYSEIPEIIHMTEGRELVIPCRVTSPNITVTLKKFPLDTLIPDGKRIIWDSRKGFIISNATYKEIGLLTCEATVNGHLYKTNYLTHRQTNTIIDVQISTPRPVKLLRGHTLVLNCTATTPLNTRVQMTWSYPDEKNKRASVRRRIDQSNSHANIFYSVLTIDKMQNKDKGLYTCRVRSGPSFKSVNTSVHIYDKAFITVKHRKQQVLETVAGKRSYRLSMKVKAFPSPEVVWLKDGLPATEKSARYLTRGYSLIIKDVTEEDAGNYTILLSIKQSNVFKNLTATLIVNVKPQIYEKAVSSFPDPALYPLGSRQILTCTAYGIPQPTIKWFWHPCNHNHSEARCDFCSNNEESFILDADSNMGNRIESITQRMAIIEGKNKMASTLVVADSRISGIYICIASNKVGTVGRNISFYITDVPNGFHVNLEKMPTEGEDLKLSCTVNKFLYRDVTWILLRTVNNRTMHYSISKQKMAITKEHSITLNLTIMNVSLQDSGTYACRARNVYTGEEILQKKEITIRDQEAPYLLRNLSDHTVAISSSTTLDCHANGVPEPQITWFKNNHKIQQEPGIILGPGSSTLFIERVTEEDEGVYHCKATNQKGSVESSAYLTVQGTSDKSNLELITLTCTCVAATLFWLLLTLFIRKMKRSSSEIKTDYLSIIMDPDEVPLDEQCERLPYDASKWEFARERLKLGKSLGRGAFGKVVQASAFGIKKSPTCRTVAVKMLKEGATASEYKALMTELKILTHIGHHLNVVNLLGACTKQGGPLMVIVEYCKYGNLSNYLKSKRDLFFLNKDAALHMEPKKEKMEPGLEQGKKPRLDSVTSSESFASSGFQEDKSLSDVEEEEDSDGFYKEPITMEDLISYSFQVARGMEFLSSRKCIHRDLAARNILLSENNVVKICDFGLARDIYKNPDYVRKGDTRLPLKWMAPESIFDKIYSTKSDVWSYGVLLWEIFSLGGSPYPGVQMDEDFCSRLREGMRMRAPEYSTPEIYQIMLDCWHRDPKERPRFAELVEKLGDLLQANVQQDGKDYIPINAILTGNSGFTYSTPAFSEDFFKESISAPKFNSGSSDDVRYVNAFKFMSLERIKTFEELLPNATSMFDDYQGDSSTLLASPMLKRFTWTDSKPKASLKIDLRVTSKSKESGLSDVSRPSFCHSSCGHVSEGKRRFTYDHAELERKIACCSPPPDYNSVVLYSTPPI

[5] = target: C-C chemokine receptor type 5 (Homo sapiens, UniProt P51681); format: cell membranes, Membrane; settings: hek293; also: in other assays of this panel Not Active means under 50% inhibition at 10 µM
C-C chemokine receptor type 5, sequence (P51681 whole entry): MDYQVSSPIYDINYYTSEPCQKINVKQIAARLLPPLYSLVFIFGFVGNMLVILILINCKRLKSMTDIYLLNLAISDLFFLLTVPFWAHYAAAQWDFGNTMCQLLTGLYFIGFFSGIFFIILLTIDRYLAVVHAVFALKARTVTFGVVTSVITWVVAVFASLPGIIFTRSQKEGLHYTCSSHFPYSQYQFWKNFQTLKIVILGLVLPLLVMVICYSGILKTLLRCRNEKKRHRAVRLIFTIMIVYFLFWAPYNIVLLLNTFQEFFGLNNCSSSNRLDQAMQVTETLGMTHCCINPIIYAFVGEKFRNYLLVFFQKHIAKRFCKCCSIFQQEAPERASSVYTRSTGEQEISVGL

[6] = target: T3, Amine oxidase [flavin-containing] A (Homo sapiens, UniProt P21397); assay: DRUGMATRIX: Monoamine Oxidase MAO-A enzyme inhibition (substrate: Kynuramine); set-up: species or system BTI-TN-5B1-4; settings: bti-tn-5b1-4; Not Active = under 50% inhibition at 10 µM
T3 sequence (P21397 whole entry): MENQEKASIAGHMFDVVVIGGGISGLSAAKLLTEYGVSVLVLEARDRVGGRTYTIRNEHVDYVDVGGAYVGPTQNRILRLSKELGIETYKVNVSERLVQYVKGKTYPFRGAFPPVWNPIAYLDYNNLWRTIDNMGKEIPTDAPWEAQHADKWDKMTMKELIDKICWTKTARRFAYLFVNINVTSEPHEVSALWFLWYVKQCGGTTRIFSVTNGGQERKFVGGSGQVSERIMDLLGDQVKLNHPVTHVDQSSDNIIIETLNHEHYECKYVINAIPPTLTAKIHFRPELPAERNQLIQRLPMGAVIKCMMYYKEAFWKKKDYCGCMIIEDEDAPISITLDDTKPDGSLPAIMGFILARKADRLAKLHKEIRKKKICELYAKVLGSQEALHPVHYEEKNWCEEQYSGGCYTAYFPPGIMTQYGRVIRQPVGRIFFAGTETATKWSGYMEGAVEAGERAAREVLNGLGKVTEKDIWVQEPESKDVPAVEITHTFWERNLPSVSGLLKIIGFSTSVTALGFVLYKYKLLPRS

[7] = target: Epidermal growth factor receptor (Homo sapiens, UniProt P00533); assay: DRUGMATRIX: Protein Tyrosine Kinase, EGF Receptor enzyme inhibition (substrate: Poly(Glu:Tyr)); format: cell-based, Insect cells; settings: Not Active = under 50% inhibition at 10 µM

For `COc1ccc(/C=C/C(=O)Nc2ccccc2C(=O)O)cc1OC`, the IC50 [1] was “Not Active”, the IC50 [2] was “Not Active” and the IC50 [3] was “Not Active”. For the same molecule, the Ki [3] was “Not Active”, the IC50 [4] was “Not Active” and the IC50 [5] was “Not Active”. For the same molecule, the IC50 [6] was “Not Active” and the IC50 ([7]; insect cells) was “Not Active”.
With `CCOC(N)=O` the IC50 [1] was “Not Active”, the IC50 [2] was “Not Active” and the IC50 [3] was “Not Active”. For the same molecule, the Ki [3] was “Not Active”, the IC50 [4] was “Not Active” and the IC50 [5] was “Not Active”. For the same molecule, the IC50 [6] was “Not Active” and the IC50 ([7]; insect cells) was “Not Active”.
For `Nc1ccc(S(=O)(=O)Nc2ncccn2)cc1` [SULFADIAZINE], the IC50 [1] was “Not Active”, the IC50 [2] was “Not Active” and the IC50 [3] was “Not Active”. For the same molecule, the Ki [3] was “Not Active”, the IC50 [4] was “Not Active” and the IC50 [5] was “Not Active”. For the same molecule, the IC50 [6] was “Not Active” and the IC50 ([7]; insect cells) was “Not Active”.
With `C[C@@H]1C[C@H]2[C@@H]3CCC4=CC(=O)C=C[C@]4(C)C3=CC[C@]2(C)[C@H]1C(=O)CN1CCN(c2cc(N3CCCC3)nc(N3CCCC3)n2)CC1` [TIRILAZAD] the IC50 [1] was “Not Active”, the IC50 [2] was “Not Active” and the IC50 [3] was “Not Active”. For the same molecule, the Ki [3] was “Not Active”, the IC50 [4] was “Not Active” and the IC50 [5] was “Not Active”. For the same molecule, the IC50 [6] was “Not Active” and the IC50 ([7]; read-out: IC50) was 20.4 µM.
For `COc1ncnc(NS(=O)(=O)c2ccc(N)cc2)c1OC` [SULFADOXINE], the IC50 [1] was “Not Active”, the IC50 [2] was “Not Active” and the IC50 [3] was “Not Active”. The Ki [3] was “Not Active”, the IC50 [4] was “Not Active” and the IC50 [5] was “Not Active”. The IC50 [6] was “Not Active” and the IC50 ([7]; insect cells) was “Not Active”.
For STANNOUS FLUORIDE, the IC50 [1] was “Not Active”, the Ki [1] was “Not Active” and the IC50 [2] was “Not Active”. The Ki [2] was “Not Active”, the IC50 [3] was “Not Active” and the Ki [3] was “Not Active”. The IC50 [4] was “Not Active”, the Ki [4] was “Not Active” and the IC50 [5] was “Not Active”. For the same molecule, the Ki [5] was “Not Active”, the IC50 [6] was “Not Active” and the Ki [6] was “Not Active”. The IC50 ([7]; insect cells) was “Not Active” and the Ki ([7]; insect cells) was “Not Active”.
In the case of `CC1=C(CC(=O)O)c2cc(F)ccc2/C1=C\c1ccc(S(C)(=O)=O)cc1` [EXISULIND], the IC50 [1] is reported as “Not Active”, the IC50 [2] is reported as “Not Active” and the IC50 [3] is reported as “Not Active”. The Ki [3] was “Not Active”, the IC50 [4] was “Not Active” and the IC50 [5] was “Not Active”. The IC50 [6] was “Not Active” and the IC50 ([7]; insect cells) was “Not Active”.
In the case of `NC[C@H]1O[C@H](O[C@H]2[C@H](O)[C@@H](O[C@H]3O[C@H](CO)[C@@H](O)[C@H](N)[C@H]3O)[C@H](N)C[C@@H]2N)[C@H](N)C[C@@H]1O` [TOBRAMYCIN], the IC50 [1] is reported as “Not Active”, the IC50 [2] is reported as “Not Active” and the IC50 [3] is reported as “Not Active”. The Ki [3] was “Not Active”, the IC50 [4] was “Not Active” and the IC50 [5] was “Not Active”. The IC50 [6] was “Not Active” and the IC50 ([7]; insect cells) was “Not Active”.
In the case of `O=C(O)C(Cl)(Cl)Cl` [TRICHLOROACETIC ACID], the IC50 [1] is reported as “Not Active”, the IC50 [2] is reported as “Not Active” and the IC50 [3] is reported as “Not Active”. The Ki [3] was “Not Active”, the IC50 [4] was “Not Active” and the IC50 [5] was “Not Active”. For the same molecule, the IC50 [6] was “Not Active” and the IC50 ([7]; insect cells) was “Not Active”.
